Data: patent US5747503A, “Selective inhibitors of biogenic amine transporters” (priority 1996, dated 1998)
Values joined by “and” are separate entries in the source; they are usually repeats but may differ in a detail not shown here. Equal values may be shown once. Where a name gives a salt, the structure may show the parent alone. Read-outs that look alike come from different tables or passages of the source.

What was measured:
[1] = tested on: PCP site 2; assay type: binding, guinea pig
Procedure: (§1) Large batches of frozen membranes were prepared with minor modifications of published procedures (Rothman, et al. (1989), supra). Twenty to thirty frozen guinea pig brains with cerebellum were thawed for 15 minutes and homogenized with a Polytron in ice-cold 5 mM Tris-HCl, pH 8.0 (10 ml/brain). The homogenate was centrifuged at 37,000×g for 10 minutes, and the pellet was washed by resuspension in the same volume of buffer followed by recentrifugation. The pellets were resuspended in an equal volume of 5 mM Tris-HCl, pH 8.0, and the concentration was adjusted to 50 mM by the addition of 1M Tris-HCl, pH 8.0. The homogenate was centrifuged for 10 min at 37,000×g. The pellets were then washed three times by resuspension and centrifugation using 50 mM Tris-HCl, pH 8.0. The final pellets were resuspended in the Tris-HCl buffer (0.5 ml/brain), pooled and 1 ml aliquots were distributed to microfuge tubes, which were stored at -70° for assay.
The [^3 H]TCP binding assay for PCP site 2 was conducted with minor modifications of published protocols (Rothman, et al. (1989), supra). Briefly, 12×75 mm polystyrene test tubes were prefilled with 100 μl of [^3 H]TCP (2 nM final concentration) in a protease inhibitor cocktail (PIC) containing 5000 nM (+) -MK801, 100 μl of distilled H2 O or drug (in distilled H2 0), 50 μl of buffer (5 mM Tris-HCL, pH 8.0), and 750 μl of membrane (0.5-1.0 mg/ml protein, in 5 mM Tris-HCl, pH 8.0). […] The protease inhibitor cocktail was composed of 25 μg/ml leupeptin, 25 μg/ml chymostatin, 0.1 mM EDTA, and 0.1 mM ethylene glycol-bis-(beta-aminoethyl-ether)-N,N,N',N'-tetraacetic acid (EGTA). The incubation time was 18-24 hours at 4° C. (steady state) in a final volume of 1 ml. Triplicate samples were filtered with an MR24 Brandel Cell Harvester and washed with two 5 ml aliquots of ice cold buffer. Whatman GF/B filters were presoaked in buffer containing 2% polyethylenimine. The tritium retained on the filters was measured using a Taurus scintillation counter at 44% efficiency after an overnight extraction into ICN Cytoscint cocktail. Non specific binding was determined using 10 μM of TCP. Protein was determine using the method of Lowry, et al., supra.
(§2) Inhibition curves were fit to the two parameter logistic equation for the best-fit estimates of the IC50 using nonlinear least squares curve fitting methods as previously described (Rothman et al. (1993), supra); Jones, S. M. and Rogawski, M. A. Mol. Neuropharmacol. 2: 303-310 (1992)).
(§3) ^a The binding assays for PCP (site 2) and PCP (site 1) were conducte
(§4) as previously reported (Rothman, R. B., et al., In: Multiple Sigma and PC
(§5) Receptor Ligands: Mechanisms for Neuromodulation and Protection 307-330
(§6) (Domino, E. F. and Kamenka, J. M., eds., 1992) using [^3 H]TCP in the
(§7) presence of (+)MK801 for site 2 and [^3 HMK801 for site 1 except that
the [^3 H]TCP assays were terminated after 18-24 hours of incubation

[2] = target: PCP site 1; assay: [^3 H](+)-MK801 binding to PCP site 1; parameters: species or system guinea pig
Procedure: as §1, with “assay. […]” for “assay.”
as §2, §3, §4, §5, §6, §7

[3] = tested on: PCP site 2; settings: guinea pig brain membranes; literature; cited from earlier work
[4] = Table 1, [^3 H]TCP in presence of (+)MK801, 18-24 hours at 4° C.

CCOC(=O)[C@H]1C[C@@H]2Cc3ccccc3[C@@H]2N1C (relative stereo) [3d]
IC50 [1, 4]: 16700 nM
IC50 ([2]; Table 1, [^3 H]MK801): > 20000 nM

c1csc(C2(N3CCCCC3)CCCCC2)c1 [TCP]
binding of [^3 H]TCP to two sites (PCP site 1 and PCP site 2) [3]: high affinity

c1ccc(CC2CC3CN2Cc2ccccc23)cc1 (single isomer, unassigned; (-)) [(-)-RTI-4793-41]
IC50 ([1]; Table 3, guinea pig membranes): 28.9 ± 3 nM
IC50 ([2]; Table 3, guinea pig membranes): > 2000 nM

c1csc(CC2CC3CN2Cc2ccccc23)c1 (stereo not drawn) [RTI-4793-55]
IC50 ([1]; Table 3, guinea pig membranes): 43.2 ± 6.58 nM
IC50 ([2]; Table 3, guinea pig membranes): > 2000 nM

CC[C@H]1C[C@@H]2Cc3ccccc3[C@@H]2N1C (relative stereo) [3e]
IC50 [1, 4]: 326 ± 49 nM
relative potency for site 2 versus 3b ([1]; versus 3b): approximately ten-times less than that of 3b
affinity for PCP site 1 in words [2]: low affinity at both sites
IC50 ([2]; Table 1, [^3 H]MK801): > 20000 nM

Fc1ccc(CC2CC3CN2Cc2ccccc23)cc1 (stereo not drawn) [RTI-4793-50]
IC50 ([1]; Table 3, guinea pig membranes): 73.5 ± 9 nM
IC50 ([2]; Table 3, guinea pig membranes): > 2000 nM

c1ccc(CC2CC3CN2Cc2ccccc23)cc1 (single isomer, unassigned; (+)) [(+)-RTI-4793-41]
IC50 ([1]; Table 3, guinea pig membranes): 4.4 ± 0.7 nM
IC50 ([1]; Table 3, guinea pig membranes, listed as (+) optical isomer of RTI-4793-41): 4.4 nM
IC50 ([2]; Table 3, guinea pig membranes): > 2000 nM

CN1[C@H](Cc2c[nH]c3ccccc23)C[C@H]2Cc3ccccc3[C@H]21 (relative stereo) [RTI-4793-44, (2RS, 3aSR, 8bRS) -1,2,3,3a, 4,8b-Hexahydro-2-(3-methanoindole)-1-methylindeno-[1,2-b]pyrrole Hydrochloride]
IC50 ([1]; Table 3, guinea pig membranes): 114 ± 12 nM
IC50 ([2]; Table 3, guinea pig membranes): > 2000 nM

BrC1CC2CN(Cc3ccccc32)C1c1ccccc1 (stereo not drawn) [RTI-4793-47]
IC50 ([1]; Table 3, guinea pig membranes): 68.8 ± 11.5 nM
IC50 ([2]; Table 3, guinea pig membranes): > 2000 nM

COc1ccc(C[C@@H]2C[C@H]3Cc4ccccc4[C@H]3N2C)cc1 (relative stereo) [RTI-4793-46, (2RS,3aSR,8bRS)-1,2,3,3a,4,8b-Hexahydro-2-(4-methoxybenzyl)-1-methylindeno[1,2-b1pyrrole Hydrochloride]
IC50 ([1]; Table 3, guinea pig membranes): 148 ± 23 nM
IC50 ([2]; Table 3, guinea pig membranes): > 2000 nM

c1ccc(CCC2CC3CN2Cc2ccccc23)cc1 (stereo not drawn) [RTI-4793-51]
IC50 ([1]; Table 3, guinea pig membranes): 289 ± 22 nM
IC50 ([2]; Table 3, guinea pig membranes): > 2000 nM

CN1CC[C@@H]2Cc3ccccc3[C@@H]21 (relative stereo) [3a]
affinity/selectivity for PCP site 2 in words [1]: low affinity at both sites
IC50 [1, 4]: > 10000 nM
affinity for PCP site 1 in words [2]: low affinity at both sites
IC50 ([2]; Table 1, [^3 H]MK801): > 20000 nM

CN1[C@@H](Cc2ccc(Cl)cc2)C[C@@H]2Cc3ccccc3[C@@H]21 (racemic) [RTI-4793-45, (2RS,3aSR,8bRS)-1,2,3,3a,4,8b-Hexahydro-2-(4-chlorobenzyl)-1-methylindeno-[1,2-b]pyrrole Hydrochloride]
IC50 ([1]; Table 3, guinea pig membranes): 254 ± 18 nM
IC50 ([2]; Table 3, guinea pig membranes): > 2000 nM

COc1ccc(CC2CC3CN2Cc2ccccc23)cc1 (stereo not drawn) [RTI-4793-49]
IC50 ([1]; Table 3, guinea pig membranes): 106 ± 13.8 nM
IC50 ([2]; Table 3, guinea pig membranes): > 2000 nM

CN1[C@@H](Cc2ccccc2)C[C@@H]2Cc3ccccc3[C@@H]21.O=C(O)c1ccc(O)cc1O [(-)-RTI-4793-14]
IC50 ([1]; Table 3, guinea pig membranes): 316 ± 58.7 nM
IC50 ([2]; Table 3, guinea pig membranes): > 2000 nM

c1ccc(CC2CC3CN2Cc2ccccc23)cc1 (stereo not drawn) [RTI-4793-41]
affinity/selectivity for PCP site 2 in words [1]: high affinity and selectivity
IC50 ([1]; Table 3, guinea pig membranes): 15 nM and 15.6 nM
IC50 ([2]; Table 3, guinea pig membranes): > 2000 nM

c1ccc(CCCCC2CC3CN2Cc2ccccc23)cc1 (stereo not drawn) [RTI-4793-52]
IC50 ([1]; Table 3, guinea pig membranes): 302 ± 28 nM
IC50 ([2]; Table 3, guinea pig membranes): > 2000 nM

c1ccc(C2CCC3CN2Cc2ccccc23)cc1 (stereo not drawn) [RTI-4793-48]
affinity/selectivity for PCP site 2 in words [1]: high affinity and selectivity
IC50 ([1]; Table 3, guinea pig membranes): 42 nM and 42.3 nM
IC50 ([2]; Table 3, guinea pig membranes): > 2000 nM
